# Measurements from patent publication US11124537B2, “Inhibitors of glucocorticoid receptor” (ORIC Pharmaceuticals, Inc., priority 2015, dated 2021).
# Target: GR (Homo sapiens (Human), UniProt P04150)
# Test: In Vitro GR Luciferase Reporter Assay
# Assay type: cell-based
# Details: CHO-K1-GR-MMTV-Luc reporter cells, antagonist assay, 10 nM Dexamethasone, 18-24 hours
# Excerpt: Example 4: In Vitro GR Luciferase Reporter Assay
# Cell Line: CHO-K1-GR-MMTV-Luc reporter cells
# Culture Media: DMEM (with phenol red)+10% FBS
# Assay Media: DMEM (without phenol red)+10% CSS
# Culture CHO-K1-GR-MMTV-Luc reporter cells in 15 cm plates in Culture Media at conditions less than 90% confluence.
# Prepare 200×DMSO 1:5 serial dilutions of control and test compounds in 96-well non-sterile V bottom plate in DMSO, 8 serial dilutions for each compound.
# Prepare 5× Assay Media diluted compound serial dilutions in 96-well non-sterile V bottom plate: Add 97.5 uL/well of Assay Media into 96-well then add 2.5 ul of 200× concentration of compounds and mix well.
# Seed cells for Antagonist Assay: […] CHO-K1-GR-MMTV-Luc reporter cells were seeded in a Corning 3707 flat clear bottom 384-well white TC plate in 20 ul of Assay Media containing 12.5 nM Dexamethasone (final concentration=10 nM).
# Add compounds: 5 ul of assay media diluted compounds were added to appropriate wells and followed a quick spin (1000 rpm, 10 sec) to bring media and cells to the bottom of plate. The plates were covered with SealMate film to avoid evaporation and placed in 37° C. incubator for approximately 18-24 hours.
# Read plates: Equilibrate appropriate amount of Promega OneGlo luciferase reagent to room temperature. Remove the plates from incubator and add 25 uL of OneGlo reagent/well by multiple channel pipette and read the plates with Tecan F500 luminometer within 3 minutes.
# The ability of the compounds disclosed herein to inhibit GR activity was quantified and the respective IC50 value was determined. Table 3 provides the cellular IC50 values of various substituted steroidal compounds disclosed herein.
# Sequence of GR (P04150 whole entry): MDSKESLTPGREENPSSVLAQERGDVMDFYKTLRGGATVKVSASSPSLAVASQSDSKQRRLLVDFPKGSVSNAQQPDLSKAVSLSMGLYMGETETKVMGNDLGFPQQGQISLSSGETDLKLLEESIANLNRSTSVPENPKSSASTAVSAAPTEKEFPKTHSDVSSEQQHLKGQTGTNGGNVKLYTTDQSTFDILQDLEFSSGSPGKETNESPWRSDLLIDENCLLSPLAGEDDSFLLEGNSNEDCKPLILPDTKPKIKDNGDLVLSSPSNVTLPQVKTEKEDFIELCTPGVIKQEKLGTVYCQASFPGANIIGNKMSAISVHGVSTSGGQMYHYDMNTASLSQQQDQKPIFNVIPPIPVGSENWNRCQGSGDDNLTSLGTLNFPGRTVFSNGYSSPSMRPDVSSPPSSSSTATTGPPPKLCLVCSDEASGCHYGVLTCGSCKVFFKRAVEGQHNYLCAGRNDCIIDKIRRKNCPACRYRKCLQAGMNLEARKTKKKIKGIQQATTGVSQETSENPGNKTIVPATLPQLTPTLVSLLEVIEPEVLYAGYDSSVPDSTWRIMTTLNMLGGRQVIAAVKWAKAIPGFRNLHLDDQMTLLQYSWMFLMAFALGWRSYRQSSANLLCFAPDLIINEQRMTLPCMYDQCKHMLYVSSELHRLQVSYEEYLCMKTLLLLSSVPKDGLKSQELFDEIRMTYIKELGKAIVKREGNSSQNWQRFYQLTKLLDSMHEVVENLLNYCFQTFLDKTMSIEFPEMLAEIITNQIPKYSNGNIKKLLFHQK
row,IC50,SMILES
1,≤ 100 nM,CN(C)c1ccc([C@H]2C[C@@]3(C)[C@@H](CC[C@@]3(O)C#Cc3ccc(Cl)cc3)[C@@H]3CCC4=CC(=O)CCC4=C32)cc1
2,≤ 100 nM,[2H]C([2H])([2H])C#C[C@]1(O)CC[C@H]2[C@@H]3CCC4=CC(=O)CCC4=C3[C@@H](c3cc(F)c(C)c(F)c3)C[C@@]21C
3,≤ 100 nM,C[C@H]1CCCN1c1ccc([C@H]2C[C@@]3(C)[C@@H](CC[C@@]3(O)C#CC(C)(C)C)[C@@H]3CCC4=CC(=O)CCC4=C32)cc1
4,≤ 100 nM,CC(C)(C)C#C[C@]1(O)CC[C@H]2[C@@H]3CCC4=CC(=O)CCC4=C3[C@@H](c3ccc(N4CCN(S(C)(=O)=O)CC4)cc3)C[C@@]21C [drawing 346]
5,≤ 100 nM,COC(C)(C)C#C[C@]1(O)CC[C@H]2[C@@H]3CCC4=CC(=O)CCC4=C3[C@@H](c3ccc(N(C)CC(F)(F)F)cc3)C[C@@]21C
6,≤ 100 nM,COC1CN(c2ccc([C@H]3C[C@@]4(C)[C@@H](CC[C@@]4(O)C#CC(C)(C)C)[C@@H]4CCC5=CC(=O)CCC5=C43)cc2)C1 [drawing 341]
7,≤ 100 nM,CN(C)c1cc(F)c([C@H]2C[C@@]3(C)[C@@H](CC[C@@]3(O)C#CC3CC3)[C@@H]3CCC4=CC(=O)CCC4=C32)cc1F
8,> 100 nM,Cc1c(F)cc([C@H]2C[C@@]3(C)[C@@H](CC[C@@]3(O)C#CC(F)(F)F)[C@@H]3CCC4=CC(=O)CCC4=C32)cc1F
9,≤ 100 nM,CN(C)c1ccc([C@H]2C[C@@]3(C)[C@@H](CC[C@@]3(O)C#Cc3ccc(C#N)cc3)[C@@H]3CCC4=CC(=O)CCC4=C32)cc1
10,≤ 100 nM,CCN(CC)c1cc(F)c([C@H]2C[C@@]3(C)[C@@H](CC[C@@]3(O)C#CC(C)C)[C@@H]3CCC4=CC(=O)CCC4=C32)c(F)c1
11,≤ 100 nM,CCC#C[C@]1(O)CC[C@H]2[C@@H]3CCC4=CC(=O)CCC4=C3[C@@H](c3ccc4c(c3)OCCO4)C[C@@]21C [drawing 324]
12,≤ 100 nM,CC(C)(C)C#C[C@]1(O)CC[C@H]2[C@@H]3CCC4=CC(=O)CCC4=C3[C@@H](c3ccc(C(C)(C)CO)cc3)C[C@@]21C
13,≤ 100 nM,CCc1ccc([C@H]2C[C@@]3(C)[C@@H](CC[C@@]3(O)C#CC(C)(C)C)[C@@H]3CCC4=CC(=O)CCC4=C32)cc1
14,≤ 100 nM,CN(C)c1cc(F)c([C@H]2C[C@@]3(C)[C@@H](CC[C@@]3(O)C#CC(F)(F)F)[C@@H]3CCC4=CC(=O)CCC4=C32)c(F)c1
15,≤ 100 nM,CC(C)C#C[C@]1(O)CC[C@H]2[C@@H]3CCC4=CC(=O)CCC4=C3[C@@H](c3c(F)cc(N(C)C)cc3F)C[C@@]21C
16,> 100 nM,Cc1c(F)cc([C@H]2C[C@@]3(C)[C@@H](CC[C@@]3(O)C#CC(C)(C)C)[C@@H]3CCC4=CC(=O)CCC4=C32)cc1F
17,> 100 nM,CC(C)Oc1cccc([C@H]2C[C@@]3(C)[C@@H](CC[C@@]3(O)C#CC(F)(F)F)[C@@H]3CCC4=CC(=O)CCC4=C32)c1
18,> 100 nM,Cc1c(F)cc([C@H]2C[C@@]3(C)[C@@H](CC[C@@]3(O)C#Cc3ccc(N(C)C)cc3)[C@@H]3CCC4=CC(=O)CCC4=C32)cc1F
19,> 100 nM,CN(C(=O)CO)c1ccc([C@H]2C[C@@]3(C)[C@@H](CC[C@@]3(O)C#CC(C)(C)C)[C@@H]3CCC4=CC(=O)CCC4=C32)cc1
20,≤ 100 nM,COCCN(C)c1ccc([C@H]2C[C@@]3(C)[C@@H](CC[C@@]3(O)C#CC(C)(C)OC)[C@@H]3CCC4=CC(=O)CCC4=C32)cc1
21,≤ 100 nM,CN(C)c1cc(F)c([C@H]2C[C@@]3(C)[C@@H](CC[C@@]3(O)C#Cc3ccccc3)[C@@H]3CCC4=CC(=O)CCC4=C32)c(F)c1
22,≤ 100 nM,CC(C)(C)C#C[C@]1(O)CC[C@H]2[C@@H]3CCC4=CC(=O)CCC4=C3[C@@H](c3ccc(C(C)(CO)CO)cc3)C[C@@]21C
23,≤ 100 nM,CN(C)c1ccc([C@H]2C[C@@]3(C)[C@@H](CC[C@@]3(O)C#CC(C)(C)C)[C@@H]3CCC4=CC(=O)CCC4=C32)cc1
24,≤ 100 nM,CC(C)(C)C#C[C@]1(O)CC[C@H]2[C@@H]3CCC4=CC(=O)CCC4=C3[C@@H](c3ccc(N4CCS(=O)(=O)CC4)cc3)C[C@@]21C
25,≤ 100 nM,Cc1c(F)cc([C@H]2C[C@@]3(C)[C@@H](CC[C@@]3(O)C#CC3CC3)[C@@H]3CCC4=CC(=O)CCC4=C32)cc1F
26,> 100 nM,CC(C)c1ccc([C@H]2C[C@@]3(C)[C@@H](C[C@@H](C)[C@@]3(O)C#CC(C)(C)C)[C@@H]3CCC4=CC(=O)CCC4=C32)cc1
27,≤ 100 nM,Cc1ccc([C@H]2C[C@@]3(C)[C@@H](CC[C@@]3(O)C#CC(C)(C)C)[C@@H]3CCC4=CC(=O)CCC4=C32)cc1F

row,IC50,SMILES
1,≤ 100 nM,CCc1cc(F)c([C@H]2C[C@@]3(C)[C@@H](CC[C@@]3(O)C#CC(C)C)[C@@H]3CCC4=CC(=O)CCC4=C32)c(F)c1
2,≤ 100 nM,COc1ccc([C@H]2C[C@@]3(C)[C@@H](CC[C@@]3(O)C#CC(C)C)[C@@H]3CCC4=CC(=O)CCC4=C32)cc1F
3,≤ 100 nM,CC(C)C#C[C@]1(O)CC[C@H]2[C@@H]3CCC4=CC(=O)CCC4=C3[C@@H](c3ccc4c(c3)OCO4)C[C@@]21C
4,> 100 nM,CN(CC1CC1)c1ccc([C@H]2C[C@@]3(C)[C@@H](CC[C@@]3(O)C#CC(C)(C)C)[C@@H]3CCC4=CC(=O)CCC4=C32)cc1
5,≤ 100 nM,CC(C)(C)C#C[C@]1(O)CC[C@H]2[C@@H]3CCC4=CC(=O)CCC4=C3[C@@H](c3ccc(N4CCCC4)cc3)C[C@@]21C [drawing 276]
6,≤ 100 nM,COCCN(C)c1ccc([C@H]2C[C@@]3(C)[C@@H](CC[C@@]3(O)C#CC(C)(C)C)[C@@H]3CCC4=CC(=O)CCC4=C32)cc1
7,> 100 nM,CN(C)c1ccc([C@H]2C[C@@]3(C)[C@@H](CC[C@@]3(O)C#Cc3ccc(C(C)(C)C)cc3)[C@@H]3CCC4=CC(=O)CCC4=C32)cc1
8,≤ 100 nM,CC(C)(C)C#C[C@]1(O)CC[C@H]2[C@@H]3CCC4=CC(=O)CCC4=C3[C@@H](c3cc(F)c(-c4ccncc4)cc3F)C[C@@]21C
9,> 100 nM,C[C@@H]1C[C@H]2[C@@H]3CCC4=CC(=O)CCC4=C3[C@@H](c3ccc(N(C)C)cc3)C[C@]2(C)[C@]1(O)C#CC(C)(C)C [drawing 335]
10,≤ 100 nM,CC(C)(C)C#C[C@]1(O)CC[C@H]2[C@@H]3CCC4=CC(=O)CCC4=C3[C@@H](c3ccc4c(c3)OCO4)C[C@@]21C [drawing 331]
11,≤ 100 nM,C[C@]12C[C@H](c3ccc4c(c3)OCO4)C3=C4CCC(=O)C=C4CC[C@H]3[C@@H]1CC[C@@]2(O)C#CC1CC1
12,≤ 100 nM,CC(C)Oc1ccc([C@H]2C[C@@]3(C)[C@@H](CC[C@@]3(O)C#CC(C)(C)C)[C@@H]3CCC4=CC(=O)CCC4=C32)cc1
13,≤ 100 nM,CN(C)c1ccc([C@H]2C[C@@]3(C)[C@@H](CC[C@@]3(O)C#CC(C)(C)C)[C@@H]3CCC4=CC(=O)CCC4=C32)cc1F [drawing 284]
14,≤ 100 nM,CC(C)C#C[C@]1(O)CC[C@H]2[C@@H]3CCC4=CC(=O)CCC4=C3[C@@H](c3ccc(N(C)C)c(F)c3)C[C@@]21C
15,≤ 100 nM,CC(C)(C)C#C[C@]1(O)CC[C@H]2[C@@H]3CCC4=CC(=O)CCC4=C3[C@@H](c3ccc(C4CC4)cc3)C[C@@]21C
16,≤ 100 nM,CC(C)N(C)c1ccc([C@H]2C[C@@]3(C)[C@@H](CC[C@@]3(O)C#CC(C)(C)C)[C@@H]3CCC4=CC(=O)CCC4=C32)cc1
17,> 100 nM,COc1cc([C@H]2C[C@@]3(C)[C@@H](CC[C@@]3(O)C#CC(C)(C)C)[C@@H]3CCC4=CC(=O)CCC4=C32)ccc1N(C)C
18,≤ 100 nM,CC(C)C#C[C@]1(O)CC[C@H]2[C@@H]3CCC4=CC(=O)CCC4=C3[C@@H](c3c(F)cc(N4CCCC4)cc3F)C[C@@]21C
19,≤ 100 nM,Cc1ccc([C@H]2C[C@@]3(C)[C@@H](CC[C@@]3(O)C#CC(C)C)[C@@H]3CCC4=CC(=O)CCC4=C32)cc1F
20,≤ 100 nM,CCN(C)c1cc(F)c([C@H]2C[C@@]3(C)[C@@H](CC[C@@]3(O)C#CC3CC3)[C@@H]3CCC4=CC(=O)CCC4=C32)c(F)c1
21,> 100 nM,COC1CN(c2ccc([C@H]3C[C@@]4(C)[C@@H](CC[C@@]4(O)C#CC(C)(C)OC)[C@@H]4CCC5=CC(=O)CCC5=C43)cc2)C1
22,> 100 nM,Cc1c(F)cc([C@H]2C[C@@]3(C)[C@@H](CC[C@@]3(O)C#Cc3ccccn3)[C@@H]3CCC4=CC(=O)CCC4=C32)cc1F
23,> 100 nM,COC(C)(C)C#C[C@]1(O)CC[C@H]2[C@@H]3CCC4=CC(=O)CCC4=C3[C@@H](c3ccc(N4CCN(C(=O)CO)CC4)cc3)C[C@@]21C
24,> 100 nM,Cc1ccc(-c2cc(F)c([C@H]3C[C@@]4(C)[C@@H](CC[C@@]4(O)C#CC(C)(C)C)[C@@H]4CCC5=CC(=O)CCC5=C43)cc2F)cn1
25,≤ 100 nM,COC(C)(C)C#C[C@]1(O)CC[C@H]2[C@@H]3CCC4=CC(=O)CCC4=C3[C@@H](c3ccc(N(C)C)cc3)C[C@@]21C
26,≤ 100 nM,CC(C)C#C[C@]1(O)CC[C@H]2[C@@H]3CCC4=CC(=O)CCC4=C3[C@@H](c3ccc4c(c3)OCCO4)C[C@@]21C
